We go through 41 compounds from patent US9451775B2, “Heterocyclic compounds as pesticides” (Bayer Intellectual Property GmbH, priority 2008, dated 2016).

In data set [1] the test system is green peach aphid (Myzus persicae). In words: Myzus test (spray treatment). It counts as in vivo. Conditions: foliar, read-out: activity (effect in %, aphids killed). As for the experimental part: Myzus Test (Spray Treatment)
• Solvents: 78.0 parts by weight of acetone • 1.5 parts by weight of dimethylformamide • Emulsifier: 0.5 part by weight of alkylaryl polyglycol ether
To produce a suitable preparation of active compound, 1 part by weight of active compound is mixed with the stated amounts of solvents and emulsifier, and the concentrate is diluted with emulsifier-containing water to the desired concentration.
Discs of leaves of Chinese cabbage (Brassica pekinensis) which are heavily infested by all stages of the green peach aphid (Myzus persicae) are sprayed with an active compound preparation of the desired concentration.
After the desired period of time, the effect in % is determined. 100% means that all aphids have been killed; 0% means that none of the aphids have been killed.

Data set [2] in a line: logP determination by HPLC (formic acid method). It counts as physicochemical. Conditions: reversed-phase HPLC column (C18), read-out: logP (HCOOH). The essentials:
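Reversed-phase C18 HPLC at 55 °C, pH 3.4, with a 4.25 min gradient from 10% to 95% acetonitrile (formic acid-modified water/acetonitrile phases). logP was derived from retention time by linear interpolation between unbranched alkan-2-ones (C3-C16) of known logP.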

Where [3] appears, read: application rate of 500 g/ha, sprayed Chinese cabbage leaf discs.
Setting [4] is: pH 3.4, HPLC on reversed-phase column (C18), acidic range (pH 3.4), 55° C.

Where two headings read alike, the source gives them in different places. Where only a bound is given, the exact number is not on record here.

Turning to `Cc1nc(-c2cccnc2)sc1-c1nccc(C(F)(F)F)n1` [compound 94], the pest or weed control at 500 g/ha in data set [1] (setting [3]) is not below 80%. Further, the chromatographic logP in data set [2] (setting [4]) stood at 3.14.

In the case of `Fc1cncc(-c2ncc(-c3cccc(-c4ncccn4)n3)s2)c1` [compound 153], the pest or weed control at 500 g/ha in data set [1] (setting [3]) is not below 80%. In addition, the chromatographic logP in data set [2] (setting [4]) was 2.11.

With `Cc1nc(-c2cccnc2)sc1-c1nc(-c2nc(C)c(C)c(C)n2)no1` [compound 73], the pest or weed control at 500 g/ha in data set [1] (setting [3]) is not below 80%. In addition, in data set [2] (setting [4]), the chromatographic logP came to 2.34.

In the case of `Cc1nc(-c2cccnc2)sc1-n1ccc(-c2ccccc2F)n1` [compound 36], the pest or weed control at 500 g/ha in data set [1] (setting [3]) was not below 80%. In addition, the chromatographic logP in data set [2] (setting [4]) is 3.33.

On to `COC(C)(C)CNC(=O)n1ccc(-c2sc(-c3cccnc3)nc2C)n1` [compound 133], for which the pest or weed control at 500 g/ha in data set [1] (setting [3]) is not below 80%. Besides, in data set [2] (setting [4]), the chromatographic logP stood at 2.53.

With `Cc1nc(-c2sc(-c3cccnc3)nc2C)cs1` [compound 30], in data set [1] (setting [3]), the pest or weed control at 500 g/ha is not below 80%. Moreover, in data set [2] (setting [4]), the chromatographic logP was 2.

Turning to `Cn1nc(-c2cccnc2)cc1-c1ccn(-c2ccccn2)n1` [compound 169], the pest or weed control at 500 g/ha in data set [1] (setting [3]) is not below 80%. Also, in data set [2] (setting [4]), the chromatographic logP worked out at 1.64.

Turning to `Cc1nc(-c2cccnc2)sc1-c1cccc(N2CC(C)OC(C)C2)n1` (centres unmarked) [compound 98], in data set [1] (setting [3]), the pest or weed control at 500 g/ha is not below 80%. Also, in data set [2] (setting [4]), the chromatographic logP turned out to be 3.55.

For `c1cnc(-c2cccc(-c3cnc(-c4cncnc4)s3)n2)nc1` [compound 151], the pest or weed control at 500 g/ha in data set [1] (setting [3]) was not below 80%. The chromatographic logP in data set [2] (setting [4]) worked out at 1.54.

`CNC(=S)n1ccc(-c2sc(-c3cccnc3)nc2C)n1` [compound 137]: the pest or weed control at 500 g/ha in data set [1] (setting [3]) was not below 80%. Also, in data set [2] (setting [4]), the chromatographic logP was 2.65.

With `COCCNC(=O)n1ccc(-c2sc(-c3cccnc3)nc2C)n1` [compound 126], the pest or weed control at 500 g/ha in data set [1] (setting [3]) is not below 80%. In addition, the chromatographic logP in data set [2] (setting [4]) was found to be 1.87.

Turning to `c1cncc(-c2ncc(-c3cccc(C4=NOCCO4)n3)s2)c1` [compound 148], the pest or weed control at 500 g/ha in data set [1] (setting [3]) is not below 80%. The chromatographic logP in data set [2] (setting [4]) worked out at 1.59.

Regarding `COCc1nccc(-c2cc(-c3cccnc3)nn2C)n1` [compound 167], in data set [1] (setting [3]), the pest or weed control at 500 g/ha was not below 80%. Besides, in data set [2] (setting [4]), the chromatographic logP was 0.83.

`c1cnc(-c2noc(-c3cnc(-c4cccnc4)s3)n2)nc1` [compound 70]: the pest or weed control at 500 g/ha in data set [1] (setting [3]) was not below 80%. In addition, the chromatographic logP in data set [2] (setting [4]) came to 1.4.

On to `Cc1nc(-c2cccnc2)sc1-c1ccnc(CC2CC2)n1` [compound 105], for which the pest or weed control at 500 g/ha in data set [1] (setting [3]) is not below 80%. In addition, the chromatographic logP in data set [2] (setting [4]) was found to be 2.69.

As to `Clc1ccc(-c2cnc(-c3cccnc3)s2)cc1` [compound 13], the pest or weed control at 500 g/ha in data set [1] (setting [3]) is not below 80%. In addition, in data set [2] (setting [4]), the chromatographic logP was 3.23.

On to `Cc1nc(-c2cccnc2)sc1-c1cccc(-c2nccnn2)n1` [Preparation Example 4, 3-[6-(4-Methyl-2-pyridin-3-ylthiazol-5-yl)pyridin-2-yl]-[1,2,4]triazine], for which the pest or weed control at 500 g/ha in data set [1] (in Brassica rapa) was not below 80%. The chromatographic logP in data set [2] (setting [4]) is 1.58; in data set [2] (pH 3.4, values printed in the text of the preparation examples, formic acid method), 1.58.

With `Cc1nc(-c2cccnc2)sc1-c1nc(N)nc(C(C)F)n1` (centres unmarked) [compound 93], the pest or weed control at 500 g/ha in data set [1] (setting [3]) is not below 80%. The chromatographic logP in data set [2] (setting [4]) came out at 1.86.

Take `COCCCNC(=S)n1ccc(-c2sc(-c3cccnc3)nc2C)n1` [compound 135]: the pest or weed control at 500 g/ha in data set [1] (setting [3]) was not below 80%. The chromatographic logP in data set [2] (setting [4]) was found to be 3.28.

On to `Cc1nc(-c2cccnc2)sc1-c1ccn(-c2cnccc2F)n1` [compound 82], for which, in data set [1] (setting [3]), the pest or weed control at 500 g/ha was not below 80%. In data set [2] (setting [4]), the chromatographic logP was 2.23.

In the case of `Cc1nc(-c2cccnc2)sc1-c1ccn(CC(F)(F)F)n1` [compound 23], the pest or weed control at 500 g/ha in data set [1] (setting [3]) was not below 80%. The chromatographic logP in data set [2] (setting [4]) came out at 2.2.

On to `Cc1nc(-c2cccnc2)sc1-c1ccn(C(=O)NC2CCCC2)n1` [compound 124], for which, in data set [1] (setting [3]), the pest or weed control at 500 g/ha is not below 80%. In addition, the chromatographic logP in data set [2] (setting [4]) was determined as 3.09.

Consider `Cc1nc(-c2cccnc2)sc1-c1ccn(-c2nnc(C(C)C)s2)n1` [compound 76], for which the pest or weed control at 500 g/ha in data set [1] (setting [3]) is not below 80%. Further, the chromatographic logP in data set [2] (setting [4]) turned out to be 3.11.

Consider `Cc1ccc(-c2nccc(-c3sc(-c4cccnc4)nc3C)n2)nc1C` [compound 55], for which the pest or weed control at 500 g/ha in data set [1] (setting [3]) is not below 80%. Further, in data set [2] (setting [4]), the chromatographic logP worked out at 1.49.

For the compound `Cc1nc(-c2cccnc2)sc1-c1nc(-c2ccncc2)no1` [compound 138], the pest or weed control at 500 g/ha in data set [1] (setting [3]) is not below 80%. Besides, the chromatographic logP in data set [2] (setting [4]) is 2.19.

Turning to `Cc1nc(-c2cccnc2)sc1-c1cccc(C2=NOCCO2)c1` [compound 101], in data set [1] (setting [3]), the pest or weed control at 500 g/ha was not below 80%. Moreover, the chromatographic logP in data set [2] (setting [4]) was 2.42.

On to `Cc1nc(-c2cccnc2)sc1-c1ccnc(-c2ncc(F)cc2F)n1` [compound 48], for which the pest or weed control at 500 g/ha in data set [1] (setting [3]) is not below 80%. Further, in data set [2] (setting [4]), the chromatographic logP is 2.08.

With `Cc1nc(-c2cccnc2)sc1-c1nc(C(F)(F)F)co1` [compound 75], the pest or weed control at 500 g/ha in data set [1] (setting [3]) is not below 80%. Besides, in data set [2] (setting [4]), the chromatographic logP came to 2.97.

Turning to `Cc1nc(-c2cccnc2)sc1-n1ccc(Br)n1` [compound 20], the pest or weed control at 500 g/ha in data set [1] (setting [3]) is not below 80%. For the same compound, the chromatographic logP in data set [2] (setting [4]) came to 2.28.

Take `Cc1nc(-c2cccnc2)sc1-c1nc(-c2nnc(C(F)(F)F)n2C)no1` [compound 91]: in data set [1] (setting [3]), the pest or weed control at 500 g/ha is not below 80%. Moreover, in data set [2] (setting [4]), the chromatographic logP was 2.41.

For the compound `FC(F)(F)c1noc(-c2cnc(-c3cccnc3)s2)n1` [compound 71], the pest or weed control at 500 g/ha in data set [1] (setting [3]) is not below 80%. Besides, in data set [2] (setting [4]), the chromatographic logP was 2.7.

Take `COc1nc(-n2ccc(-c3sc(-c4cccnc4)nc3C)n2)nc2c1CCC2` [compound 108]: the pest or weed control at 500 g/ha in data set [1] (setting [3]) was not below 80%. Besides, the chromatographic logP in data set [2] (setting [4]) was 3.18.

Turning to `Cc1nc(-c2cccnc2)sc1-c1ccn(C(=O)NC2CC2)n1` [compound 125], in data set [1] (setting [3]), the pest or weed control at 500 g/ha was not below 80%. Moreover, the chromatographic logP in data set [2] (setting [4]) came out at 2.08.

Consider `Cc1noc(Cn2ccc(-c3sc(-c4cccnc4)nc3C)n2)n1` [compound 145], for which the pest or weed control at 500 g/ha in data set [1] (setting [3]) is not below 80%. In addition, in data set [2] (setting [4]), the chromatographic logP stood at 1.71.

On to `Cc1nc(-c2cccnc2)sc1-c1ccn(C(=O)NC2CCCCC2)n1` [compound 122], for which the pest or weed control at 500 g/ha in data set [1] (setting [3]) was not below 80%. Also, the chromatographic logP in data set [2] (setting [4]) turned out to be 3.56.

As to `COc1cc(OC)nc(-c2nccc(-c3sc(-c4cccnc4)nc3C)n2)n1` [compound 59], the pest or weed control at 500 g/ha in data set [1] (setting [3]) is not below 80%. Further, the chromatographic logP in data set [2] (setting [4]) was found to be 2.12.

As to `COC(=O)c1oc(-c2sc(-c3cccnc3)nc2C)nc1C` [compound 100], the pest or weed control at 500 g/ha in data set [1] (setting [3]) was not below 80%. Also, in data set [2] (setting [4]), the chromatographic logP was determined as 2.55.

As to `CCC(COC)NC(=O)n1ccc(-c2sc(-c3cccnc3)nc2C)n1` (centres unmarked) [compound 116], the pest or weed control at 500 g/ha in data set [1] (setting [3]) is not below 80%. Also, the chromatographic logP in data set [2] (setting [4]) was 2.61.

Consider `Cc1nc(-c2cccnc2)sc1-c1ccn(C(=O)NCC2CC2)n1` [compound 127], for which, in data set [1] (setting [3]), the pest or weed control at 500 g/ha is not below 80%. Further, the chromatographic logP in data set [2] (setting [4]) worked out at 2.57.

Take `Cc1nc(-c2cccnc2)sc1-c1cccc(-n2cccn2)n1` [compound 97]: in data set [1] (setting [3]), the pest or weed control at 500 g/ha is not below 80%. For the same compound, the chromatographic logP in data set [2] (setting [4]) was determined as 2.93.

For `Cc1nc(-c2cccnc2)sc1-c1ccnc(-c2ccccn2)n1` [compound 29], the pest or weed control at 500 g/ha in data set [1] (setting [3]) was not below 80%. The chromatographic logP in data set [2] (setting [4]) came out at 1.47.
